Data taken from publication PMC6721824, “IGFs Potentiate TAC3-induced SLα Expression via Upregulation of TACR3 Expression in Grass Carp Pituitary Cells” (Cells, 2019).

Experiments:
[1] = system: SLα mRNA expression in grass carp pituitary cells; assay: SLα mRNA expression (qPCR) in grass carp pituitary cells; assay type: cell-based, grass carp (Ctenopharyngodon idellus); settings: for effect on SLα mRNA expression induced by IGF-I or senktide treatment alone: senktide 1 µM, IGF-I 100 nM; for effect on SLα mRNA expression induced by IGF-I or senktide treatment alone / effect on the synergistic effect on SLα mRNA expression caused by IGF-I and senktide cotreatment: inhibitors 10 µM, 2-APB 100 µM, calmidazolium 1 µM (Figure 5A–C); for effect on the synergistic effect on SLα mRNA expression caused by IGF-I and senktide cotreatment: senktide (1 µM) + IGF-I (100 nM); for SLα mRNA levels, activator alone: static incubation for 24 h, 8Br.cAMP 10 µM, forskolin 1 µM, Dic8 100 µM, TPA 10 µM, A23187 100 nM, BayK8644 100 nM (Figure 5D); for enhancement of the stimulatory effects of TAC3 gene products on SLα mRNA expression: IGF-I/-II cotreatment
Protocol: (§1) Grass carp pituitary cells prepared by the trypsin/DNase digestion method were seeded in 24-well plates at ~2.5 × 10^6 cells/mL/well. On the following day, drug treatment was initiated by replacing the old medium with a testing medium with the appropriate levels of test substances, and the cells were then allowed to incubate at 28 °C for the duration as indicated. After drug treatment, total RNA was extracted from individual wells and reversely transcribed as above. The RT samples obtained were subjected to qPCR using a LightCycler SYBR Green I Kit (Roche, Stockholm, Sweden) with the primers mentioned above. In these studies, serial dilutions of plasmid DNA containing the ORF of SLα (GeneBank no.: EF372074) and TACR3 (GenBank no: JQ254913) cDNA were used as the standards for data calibration. Parallel real-time PCR measurement of β-actin was also conducted in individual experiments to serve as the internal control.
(§2) For real-time PCR of SLα and TACR3 mRNA measurement, standard curves with a dynamic range of ≥10^5 and correlation coefficient of ≥0.95 were used for data calibration with the RotorGene-Q software 1.7 (Qiagen) under unsupervised mode. SLα and TACR3 mRNA data were normalized with the β-actin transcript level and then were transformed as a percentage of the mean value in the control group without drug treatment (as “%Ctrl”). For the calcium bioluminescence signals and raw data obtained from luciferase reporter assays, the luminescence signals or luciferase activity was expressed as “relative luminescence unit (RLU)” registered by the fluorescence plate reader. For individual samples of the luciferase reporter assay, the firefly luciferase activity detected was routinely normalized against Renilla Luciferase activity expressed in the same well and expressed as the luciferase activity ration (as “Luc Ratio”). For receptor binding assay, specific binding of FAM-NKBa was measured in terms of “Arbitrary Fluorescence Unit (AFU)”. The six replicates presented (expressed as Mean ± SEM) were pooled results from two individual experiments prior to statistical analysis; all data were tested for normality of distribution using the Shapiro–Wilk normality test. Then, one-way ANOVA and two-way ANOVA were used to test the significant difference according to different experiment groups. The differences between groups were considered as significant at P < 0.05 (“*”) or highly significant at P < 0.01 (“**”).

[2] = system: TACR3 mRNA expression in grass carp pituitary cells; assay: TACR3 mRNA expression (qPCR) in grass carp pituitary cells; assay type: cell-based, grass carp (Ctenopharyngodon idellus); settings: for effect on IGF-I-induced TACR3 mRNA expression: 24 h cotreatment with IGF-I (10 nM), inhibitors 10 µM, wortmannin 1 µM, rapamycin 20 nM; for TACR3 mRNA expression, time course: 100 nM, from 1 h to 24 h (Figure 3B); for TACR3 mRNA expression, dose-dependence: 24-h incubation, 0.01–100 nM (Figure 3C)
Protocol: as §1, §2

[3] = molecular target: T1, grass carp TACR3 (Ctenopharyngodon idella, UniProt A0A075BDW2); assay: Fluorescence-based receptor binding assay, displacement of FAM-NKBa tracer; parameters: species or system grass carp (Ctenopharyngodon idellus); settings: HEK-293 cells with stable expression of grass carp TACR3, 30 min pretreatment with competitor, then FAM-NKBa (10 nM) 30 min, 37 °C; bound given in μM; read-out: IC50 for displacing FAM-NKBa binding
T1 sequence (A0A075BDW2 1-395): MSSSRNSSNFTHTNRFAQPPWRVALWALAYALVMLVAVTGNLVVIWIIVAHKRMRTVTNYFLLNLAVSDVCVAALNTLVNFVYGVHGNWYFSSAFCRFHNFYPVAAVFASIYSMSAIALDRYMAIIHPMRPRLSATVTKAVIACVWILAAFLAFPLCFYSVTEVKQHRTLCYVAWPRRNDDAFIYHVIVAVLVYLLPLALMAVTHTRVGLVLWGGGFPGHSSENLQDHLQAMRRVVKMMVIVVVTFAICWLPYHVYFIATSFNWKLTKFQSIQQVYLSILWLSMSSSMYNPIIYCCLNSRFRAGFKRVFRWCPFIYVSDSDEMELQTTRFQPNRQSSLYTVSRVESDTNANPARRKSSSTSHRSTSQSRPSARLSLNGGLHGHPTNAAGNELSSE
Protocol: The cells were then harvested and seeded onto 24-well plates at a density of 0.1 million/well and incubated at 37 °C under 5% CO2 for 24 h prior to the experiments. On the day of the experiments, the culture medium was aspirated and replaced with 500 μL serum-free DMEM with or without appropriated levels of unlabeled competitors. Cells were then allowed to incubate for 30 min at 37 °C under 5% CO2 and saturated humidity. FAM Carboxyfluorescein-labeled NKBa, namely FAM-NKBa, was used as a tracer for receptor binding experiments, and a 50-μL volume of FAM-NKBa (10 nM) was added into individual wells. After further incubation for 30 min at 37 °C, the cells were washed twice and with 500 μl PBS each to remove unbound ligands. […] The supernatant from individual wells was then collected in a 96-wells black view plate, and fluorescence signals indicative of FAM-NKBa binding were registered using FluoStar OPTIMA with excitation at 490 nm and emission at 520 nm.
For receptor binding assay, specific binding of FAM-NKBa was measured in terms of “Arbitrary Fluorescence Unit (AFU)”. The six replicates presented (expressed as Mean ± SEM) were pooled results from two individual experiments prior to statistical analysis; all data were tested for normality of distribution using the Shapiro–Wilk normality test. […]

With `NCCOB(c1ccccc1)c1ccccc1` [2-APB] as the compound, how does the “effect on SLα mRNA expression induced by IGF-I or senktide treatment alone” value (from here on “effect on SLα mRNA expression induced”) [1] read?
Its value is “attenuated”.

What about the “effect on the synergistic effect on SLα mRNA expression caused by IGF-I and senktide cotreatment” value (“effect on the synergistic effect” below) [1] of the same compound?
The value was “notably suppressed”.

For `Nc1ncnc2c1nc(Br)n2[C@@H]1O[C@@H]2COP(=O)(O)O[C@H]2[C@H]1O` [8Br.cAMP], which “SLα mRNA levels, activator alone” value [1] is on record?
Its value is “effective in elevating SLα mRNA levels”.

Which “SLα mRNA levels, activator alone” value [1] does the source give for `CNc1ccc2oc(C[C@H]3O[C@@]4(CC[C@H]3C)O[C@H]([C@H](C)C(=O)c3ccc[nH]3)[C@H](C)C[C@H]4C)nc2c1C(=O)O` [A23187] here?
The value was “effective in elevating SLα mRNA levels”.

Which “SLα mRNA levels, activator alone” value [1] does the source give for `COC(=O)C1=C(C)NC(C)=C([N+](=O)[O-])C1c1ccccc1C(F)(F)F` (stereo not drawn) [BayK8644] here?
Its value is “effective in elevating SLα mRNA levels”.

Which “SLα mRNA levels, activator alone” value [1] does the source give for `CCCCCCCC(=O)OCC(CO)OC(=O)CCCCCCC` (stereo not drawn) [Dic8] here?
Its value is “effective in elevating SLα mRNA levels”.

Which results are given for `CN(C)CCCn1cc(C2=C(c3c[nH]c4ccccc34)C(=O)NC2=O)c2ccccc21` [GF109203X]?
effect on SLα mRNA expression induced by IGF-I or senktide treatment alone [1]: attenuated; effect on the synergistic effect on SLα mRNA expression caused by IGF-I and senktide cotreatment [1]: notably suppressed

How did the “effect on SLα mRNA expression induced” value [1] turn out when `O=S(=O)(NCCNC/C=C/c1ccc(Br)cc1)c1cccc2cnccc12` [H89] was run?
Its value is “attenuated”.

And the “effect on the synergistic effect” value [1]?
The value was “notably suppressed”.

With `O=P(O)(O)C(O)c1ccc2ccccc2c1` (stereo not drawn) [HNMPA] as the compound, how does the “effect on IGF-I-induced TACR3 mRNA expression” value [2] read?
Its value is “not effective”.

`CN([C@@H](Cc1ccc(OS(=O)(=O)c2cccc3cnccc23)cc1)C(=O)N1CCN(c2ccccc2)CC1)S(=O)(=O)c1cccc2cnccc12` [KN62] was tested. Which “effect on SLα mRNA expression induced” value [1] did it give?
Its value is “attenuated”.

And the “effect on the synergistic effect” value [1]?
Its value is “notably suppressed”.

Which results are given for `Cl.c1ccc(C2CCCC2NC2=NCCCCCCCCCCC2)cc1` (stereo not drawn) [MDL12330A]?
effect on SLα mRNA expression induced by IGF-I or senktide treatment alone [1]: attenuated; effect on the synergistic effect on SLα mRNA expression caused by IGF-I and senktide cotreatment [1]: notably suppressed

`COc1cc([C@@H]2c3cc4c(cc3[C@H](O)[C@H]3COC(=O)[C@@H]23)OCO4)cc(OC)c1OC` [PPP] was tested. Which “effect on IGF-I-induced TACR3 mRNA expression” value [2] did it give?
The value was “partially inhibited”.

Which “effect on IGF-I-induced TACR3 mRNA expression” value [2] does the source give for `COc1ccc(Cl)cc1NC(=O)Nc1cc(C)nc2ccccc12` [PQ401] here?
Its value is “totally abolished”.

What does the source list for `CC[C@H](NC(=O)c1c(C)c(-c2ccccc2)nc2ccccc12)c1ccccc1` [SB222200]?
effect on the potentiating effect induced by IGF-I + NKBRPa on SLα transcript expression ([1]; antagonist 10 µM, IGF-I (100 nM) + NKBRPa (1 µM) (Figure 4F)): markedly reduced; effect on IGF-I- or NKBRPa-induced SLα transcript expression ([1]; antagonist 10 µM, NKBRPa 1 µM, IGF-I 100 nM (Figure 4F)): suppress

`CCCCCCCCCCCCCC(=O)O[C@@H]1[C@@H](C)[C@@]2(O)[C@@H](C=C(CO)C[C@]3(O)C(=O)C(C)=C[C@@H]23)[C@@H]2C(C)(C)[C@]12OC(C)=O` [TPA] was tested. Which “SLα mRNA levels, activator alone” value [1] did it give?
Its value is “effective in elevating SLα mRNA levels”.

Which “effect on SLα mRNA expression induced” value [1] does the source give for `COc1ccc2c(c1)CC[C@@H]1[C@@H]2CC[C@]2(C)[C@@H](NCCCCCCN3C(=O)C=CC3=O)CC[C@@H]12` [U73122] here?
Its value is “attenuated”.

And the “effect on the synergistic effect” value [1]?
The value was “notably suppressed”.

Which results are given for `Clc1ccc(C(c2ccc(Cl)cc2)n2cc[n+](CC(OCc3ccc(Cl)cc3Cl)c3ccc(Cl)cc3Cl)c2)cc1` (stereo not drawn) [calmidazolium]?
effect on SLα mRNA expression induced by IGF-I or senktide treatment alone [1]: attenuated; effect on the synergistic effect on SLα mRNA expression caused by IGF-I and senktide cotreatment [1]: notably suppressed

How did the “SLα mRNA levels, activator alone” value [1] turn out when `C=C[C@@]1(C)CC(=O)[C@]2(O)[C@@]3(C)[C@@H](O)CCC(C)(C)[C@@H]3[C@H](O)[C@H](OC(C)=O)[C@@]2(C)O1` [forskolin] was run?
Its value is “effective in elevating SLα mRNA levels”.

With `COC(=O)C1=C(C)NC(C)=C(C(=O)OC)C1c1ccccc1[N+](=O)[O-]` [nifedipine] as the compound, how does the “effect on SLα mRNA expression induced” value [1] read?
The value was “attenuated”.

And the “effect on the synergistic effect” value [1]?
The value was “notably suppressed”.

How did the “effect on IGF-I-induced TACR3 mRNA expression” value [2] turn out when `CO[C@H]1C[C@@H]2CC[C@@H](C)[C@@](O)(O2)C(=O)C(=O)N2CCCC[C@H]2C(=O)O[C@H]([C@H](C)C[C@@H]2CC[C@@H](O)[C@H](OC)C2)CC(=O)[C@H](C)/C=C(\C)[C@@H](O)[C@@H](OC)C(=O)[C@H](C)C[C@H](C)/C=C/C=C/C=C/1C` [rapamycin] was run?
Its value is “notably suppressed”.

For `COC[C@H]1OC(=O)c2coc3c2[C@@]1(C)C1=C(C3=O)[C@@H]2CCC(=O)[C@@]2(C)C[C@H]1OC(C)=O` [wortmannin], which “effect on IGF-I-induced TACR3 mRNA expression” value [2] is on record?
Its value is “notably suppressed”.

For “GR64349: TACR2-specific agonist (NK2R agonist, Tocris)”, which IC50 [3] is on record?
The IC50 was greater than 10 µM.

For “IGF-I: Human insulin-like growth factor I, purchased from Sigma”, which “TACR3 mRNA expression, time course” value [2] is on record?
Its value is “significantly stimulate TACR3 mRNA expression”.

And the “TACR3 mRNA expression, dose-dependence” value [2]?
The value was “trigger TACR3 mRNA expression in a concentration-related fashion”.

And the “enhancement of the stimulatory effects of TAC3 gene products on SLα mRNA expression” value [1]?
The value was “up to 8 fold increase”.

And the “SLα mRNA levels, treatment alone, time course” value ([1]; NKBRPa 1 µM, IGF-I 100 nM (Figure 4A))?
Its value is “induce SLα mRNA levels”.

And the “NKBRPa-induced SLα transcript level enhanced by IGF-I cotreatment” value ([1]; NKBRPa (1 µM) + IGF-I (100 nM), especially after 12–24 h)?
The value was “up to 10 folds basal”.

“IGF-II: Human insulin-like growth factor II, purchased from Sigma” was tested. Which “TACR3 mRNA expression, time course” value [2] did it give?
The value was “significantly stimulate TACR3 mRNA expression”.

And the “TACR3 mRNA expression, dose-dependence” value [2]?
The value was “trigger TACR3 mRNA expression in a concentration-related fashion”.

What about the “enhancement of the stimulatory effects of TAC3 gene products on SLα mRNA expression” value [1] of the same compound?
Its value is “up to 8 fold increase”.

With “insulin: Human insulin, purchased from Sigma” as the compound, how does the “TACR3 mRNA expression, dose-dependence” value [2] read?
The value was “not mimicked”.
